Results reported in ChEMBL document CHEMBL1133836, “Anchoring and bola cationic amphiphiles for nucleotide delivery. Effects of orientation and extension of hydrophobic regions” (2001).

Tests used:
Type in all cases: functional, Mus musculus
NIH3T3 [1] = assay: Cytotoxicity expressed as percent viability of liposome-plasmid DNA complex
NIH3T3 [2] = assay: Transfection activity of the liposomes derived from compound determined by luciferase assay at 12.5 nmol
NIH3T3 [3] = assay: Transfection activity of the liposomes derived from compound determined by luciferase assay at 25 nmol
NIH3T3 [4] = assay: Cytotoxicity expressed as percent viability of liposome-plasmid DNA complex at 100 nmol
NIH3T3 [5] = assay: Cytotoxicity expressed as percent viability of liposome-plasmid DNA complex at 12.5 nmol
NIH3T3 [6] = assay: Cytotoxicity expressed as percent viability of liposome-plasmid DNA complex at 25 nmol
NIH3T3 [7] = assay: Cytotoxicity expressed as percent viability of liposome-plasmid DNA complex at 50 nmol

Structure (SMILES) | Viability (NIH3T3 [1]) [%] | Transfection activity (NIH3T3 [2]) | Transfection activity (NIH3T3 [3]) | Viability (NIH3T3 [4]) [%] | Viability (NIH3T3 [5]) [%] | Viability (NIH3T3 [6]) [%] | Viability (NIH3T3 [7]) [%]
CC(C)CCC[C@@H](C)C1CCC2C3CC=C4CC(OC(=O)NCCN(C)C)CCC4(C)C3CCC21C (stereo partly drawn) | 95 | – | – | – | – | – | –
C[C@H](CCC(=O)NCCCNCCCCN)C1CCC2C3CCC4CC(OC/C=C/CO[C@H]5CC[C@]6(C)C(CCC7C6CC[C@]6(C)C7CCC6[C@H](C)CCC(=O)NCCCNCCCCN)C5)CC[C@]4(C)C3CC[C@@]21C (stereo partly drawn) | – | 1500000 RLU (mg of protein)-1 | 2000000 RLU (mg of protein)-1 | 5 | 95 | 75 | 40
C[C@H](CCC(=O)NCCCNCCCCN)C1CCC2C3CCC4CC(OC/C=C/CO[C@@H]5CC[C@]6(C)C(CCC7C6CC[C@]6(C)C7CCC6[C@H](C)CCC(=O)NCCCNCCCCN)C5)CC[C@]4(C)C3CC[C@@]21C (stereo partly drawn) | – | 1000000 RLU (mg of protein)-1 | – | – | – | – | –
